Experiments:
Test in all cases: RBC kinase panel
Assay type in all cases: biochemical
Settings in all cases: ATP 10 μM, Data1, Data2
[1] = biological target: T1, CDC7/DBF4 (Homo sapiens, UniProt O00311)
T1 construct: purchased Reaction Biology Corporation
Procedure, shortened: (§1)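 Test compound was screened at a single concentration of 1 μM, in duplicate, across a panel of 369 human kinases. Every kinase reaction contained 10 μM ATP.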

[2] = biological target: T2, PDGFRa (Homo sapiens, UniProt P16234)
T2 construct: purchased Reaction Biology Corporation
Procedure, shortened: as §1

[3] = biological target: T3, EPHB1 (Homo sapiens, UniProt P54762)
T3 construct: purchased Reaction Biology Corporation
Procedure, shortened: as §1

[4] = biological target: T4, COT1/MAP3K8 (Homo sapiens, UniProt P41279)
T4 construct: purchased Reaction Biology Corporation
Procedure, shortened: as §1

[5] = biological target: T5, EPHA4 (Homo sapiens, UniProt P54764)
T5 construct: purchased Reaction Biology Corporation
Procedure, shortened: as §1

[6] = biological target: T6, LRRK2 (Homo sapiens, UniProt Q5S007)
T6 construct: purchased Reaction Biology Corporation
Procedure, shortened: as §1

[7] = biological target: T7, SYK (Homo sapiens, UniProt P43405)
T7 construct: purchased Reaction Biology Corporation
Procedure, shortened: as §1

[8] = biological target: T8, FGFR4 (Homo sapiens, UniProt P22455)
T8 construct: purchased Reaction Biology Corporation
T8 sequence (P22455 22-802): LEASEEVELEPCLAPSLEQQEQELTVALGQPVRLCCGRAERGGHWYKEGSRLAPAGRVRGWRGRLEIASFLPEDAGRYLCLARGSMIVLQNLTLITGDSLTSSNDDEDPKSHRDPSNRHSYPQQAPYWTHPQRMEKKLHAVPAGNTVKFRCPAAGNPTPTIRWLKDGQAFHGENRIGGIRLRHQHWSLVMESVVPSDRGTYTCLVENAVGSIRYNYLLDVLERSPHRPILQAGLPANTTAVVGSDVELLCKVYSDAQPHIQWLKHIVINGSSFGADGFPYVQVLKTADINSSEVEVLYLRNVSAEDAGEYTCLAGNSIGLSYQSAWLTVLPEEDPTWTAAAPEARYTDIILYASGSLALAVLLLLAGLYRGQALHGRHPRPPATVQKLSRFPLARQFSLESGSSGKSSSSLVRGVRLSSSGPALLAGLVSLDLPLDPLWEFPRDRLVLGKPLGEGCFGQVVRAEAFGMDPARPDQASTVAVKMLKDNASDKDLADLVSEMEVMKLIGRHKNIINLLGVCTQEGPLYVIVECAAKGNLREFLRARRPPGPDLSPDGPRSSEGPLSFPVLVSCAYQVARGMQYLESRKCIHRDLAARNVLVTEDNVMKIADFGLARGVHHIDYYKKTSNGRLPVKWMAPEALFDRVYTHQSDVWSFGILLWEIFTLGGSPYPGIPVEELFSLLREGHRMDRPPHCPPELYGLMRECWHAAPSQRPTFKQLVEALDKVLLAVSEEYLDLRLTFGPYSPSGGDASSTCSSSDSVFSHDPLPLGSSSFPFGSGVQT
Procedure, shortened: as §1

[9] = biological target: T9, CDK1/cyclin A (Homo sapiens, UniProt P06493)
T9 construct: purchased Reaction Biology Corporation
Procedure, shortened: as §1

[10] = biological target: T10, HIPK1 (Homo sapiens, UniProt Q86Z02)
T10 construct: purchased Reaction Biology Corporation
Procedure, shortened: as §1

[11] = biological target: T11, WEE1 (Homo sapiens, UniProt P30291)
T11 construct: purchased Reaction Biology Corporation
Procedure, shortened: as §1

[12] = biological target: T12, TIE2/TEK (Homo sapiens, UniProt Q02763)
T12 construct: purchased Reaction Biology Corporation
Procedure, shortened: as §1

[13] = biological target: T13, PYK2 (Homo sapiens, UniProt Q14289)
T13 construct: purchased Reaction Biology Corporation
Procedure, shortened: as §1

[14] = biological target: T14, PDGFRb (Homo sapiens, UniProt P09619)
T14 construct: purchased Reaction Biology Corporation
Procedure, shortened: as §1

[15] = biological target: T15, MSK1/RPS6KA5 (Homo sapiens, UniProt O75582)
T15 construct: purchased Reaction Biology Corporation
Procedure, shortened: as §1

[16] = biological target: T16, TAOK3/JIK (Homo sapiens, UniProt Q9H2K8)
T16 construct: purchased Reaction Biology Corporation
T16 sequence (Q9H2K8 whole entry): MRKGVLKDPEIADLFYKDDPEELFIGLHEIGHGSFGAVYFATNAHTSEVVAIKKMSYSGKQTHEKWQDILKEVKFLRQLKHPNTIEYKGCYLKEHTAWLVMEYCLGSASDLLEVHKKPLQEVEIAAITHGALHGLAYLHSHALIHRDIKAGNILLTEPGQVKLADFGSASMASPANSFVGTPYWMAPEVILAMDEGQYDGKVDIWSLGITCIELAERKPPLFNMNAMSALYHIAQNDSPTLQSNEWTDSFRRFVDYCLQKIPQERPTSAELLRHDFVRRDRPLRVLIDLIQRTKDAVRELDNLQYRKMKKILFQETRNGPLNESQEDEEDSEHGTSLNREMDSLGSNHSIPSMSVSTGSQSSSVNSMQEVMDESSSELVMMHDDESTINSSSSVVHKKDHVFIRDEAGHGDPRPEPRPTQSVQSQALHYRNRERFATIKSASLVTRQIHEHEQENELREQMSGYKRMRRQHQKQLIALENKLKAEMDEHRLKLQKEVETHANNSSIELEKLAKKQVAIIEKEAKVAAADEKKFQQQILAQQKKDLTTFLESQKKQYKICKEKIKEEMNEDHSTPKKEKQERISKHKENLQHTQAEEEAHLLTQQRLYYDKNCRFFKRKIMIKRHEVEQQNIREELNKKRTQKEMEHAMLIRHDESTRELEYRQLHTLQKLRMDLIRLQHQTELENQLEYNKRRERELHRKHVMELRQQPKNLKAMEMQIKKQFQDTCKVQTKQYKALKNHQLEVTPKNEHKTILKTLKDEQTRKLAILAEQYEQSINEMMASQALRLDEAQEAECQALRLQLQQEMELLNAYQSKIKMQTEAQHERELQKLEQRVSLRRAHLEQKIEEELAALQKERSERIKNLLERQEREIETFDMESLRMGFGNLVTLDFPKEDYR
Procedure, shortened: as §1

[17] = biological target: T17, MAPKAPK5/PRAK (Homo sapiens, UniProt Q8IW41)
T17 construct: purchased Reaction Biology Corporation
Procedure, shortened: as §1

[18] = biological target: T18, JNK3 (Homo sapiens, UniProt P53779)
T18 construct: purchased Reaction Biology Corporation
T18 sequence (P53779 whole entry): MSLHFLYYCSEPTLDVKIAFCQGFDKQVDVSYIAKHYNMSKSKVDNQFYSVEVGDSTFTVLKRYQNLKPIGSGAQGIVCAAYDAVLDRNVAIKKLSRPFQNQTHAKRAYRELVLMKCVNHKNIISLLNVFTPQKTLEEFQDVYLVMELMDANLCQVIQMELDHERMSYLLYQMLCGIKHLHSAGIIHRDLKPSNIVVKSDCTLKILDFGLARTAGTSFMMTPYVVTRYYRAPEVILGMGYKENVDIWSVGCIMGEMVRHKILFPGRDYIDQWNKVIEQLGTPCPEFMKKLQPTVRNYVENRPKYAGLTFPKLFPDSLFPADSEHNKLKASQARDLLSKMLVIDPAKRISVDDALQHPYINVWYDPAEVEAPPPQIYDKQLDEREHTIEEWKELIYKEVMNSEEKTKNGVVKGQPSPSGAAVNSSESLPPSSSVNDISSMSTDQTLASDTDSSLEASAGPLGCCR
Procedure, shortened: as §1

[19] = biological target: T19, PHKg2 (Homo sapiens, UniProt P15735)
T19 construct: purchased Reaction Biology Corporation
T19 sequence (P15735 whole entry): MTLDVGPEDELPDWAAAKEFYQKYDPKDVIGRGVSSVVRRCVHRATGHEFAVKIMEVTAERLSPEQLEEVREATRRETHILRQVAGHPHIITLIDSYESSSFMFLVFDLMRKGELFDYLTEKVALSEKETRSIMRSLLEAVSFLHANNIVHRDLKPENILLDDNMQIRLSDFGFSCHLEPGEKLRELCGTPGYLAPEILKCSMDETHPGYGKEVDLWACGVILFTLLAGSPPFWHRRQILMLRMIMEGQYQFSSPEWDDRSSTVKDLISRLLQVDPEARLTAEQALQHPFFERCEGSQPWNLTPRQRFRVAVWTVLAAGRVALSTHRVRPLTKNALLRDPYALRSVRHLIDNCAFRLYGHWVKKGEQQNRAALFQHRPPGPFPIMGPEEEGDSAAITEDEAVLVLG
Procedure, shortened: as §1

[20] = biological target: T20, PKCg (Homo sapiens, UniProt P05129)
T20 construct: purchased Reaction Biology Corporation
Procedure, shortened: as §1

[21] = biological target: T21, SIK1 (Homo sapiens, UniProt P57059)
T21 construct: purchased Reaction Biology Corporation
Procedure, shortened: as §1

[22] = biological target: T22, TXK (Homo sapiens, UniProt P42681)
T22 construct: purchased Reaction Biology Corporation
Procedure, shortened: as §1

[23] = biological target: T23, MARK4 (Homo sapiens, UniProt Q96L34)
T23 construct: purchased Reaction Biology Corporation
T23 sequence (Q96L34 whole entry): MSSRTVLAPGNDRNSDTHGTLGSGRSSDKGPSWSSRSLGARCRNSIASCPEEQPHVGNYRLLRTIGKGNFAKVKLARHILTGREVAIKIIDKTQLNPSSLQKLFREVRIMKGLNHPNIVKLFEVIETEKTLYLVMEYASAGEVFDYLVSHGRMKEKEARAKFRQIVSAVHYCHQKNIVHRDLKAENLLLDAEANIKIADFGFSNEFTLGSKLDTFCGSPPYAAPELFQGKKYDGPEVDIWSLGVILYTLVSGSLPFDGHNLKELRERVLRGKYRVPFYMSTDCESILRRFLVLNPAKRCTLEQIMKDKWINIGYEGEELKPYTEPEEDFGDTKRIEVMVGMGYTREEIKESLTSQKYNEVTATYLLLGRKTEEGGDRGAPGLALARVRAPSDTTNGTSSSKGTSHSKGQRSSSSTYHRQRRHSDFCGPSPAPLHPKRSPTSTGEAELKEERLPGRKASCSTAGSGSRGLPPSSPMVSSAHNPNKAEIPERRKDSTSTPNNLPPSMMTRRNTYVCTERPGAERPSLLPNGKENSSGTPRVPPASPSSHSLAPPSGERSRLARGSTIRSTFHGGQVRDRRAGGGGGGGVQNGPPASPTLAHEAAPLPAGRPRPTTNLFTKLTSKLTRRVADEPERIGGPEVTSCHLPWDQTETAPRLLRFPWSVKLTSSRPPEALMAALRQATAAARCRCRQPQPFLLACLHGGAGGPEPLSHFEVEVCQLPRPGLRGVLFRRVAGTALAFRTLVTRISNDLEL
Procedure, shortened: as §1

[24] = biological target: T24, CDK1/cyclin B (Homo sapiens, UniProt P06493)
T24 construct: purchased Reaction Biology Corporation
Procedure, shortened: as §1

[25] = biological target: T25, PKCmu/PRKD1 (Homo sapiens, UniProt Q15139)
T25 construct: purchased Reaction Biology Corporation
Procedure, shortened: as §1

[26] = biological target: T26, c-Src (Homo sapiens, UniProt P12931)
T26 construct: purchased Reaction Biology Corporation
Procedure, shortened: as §1

[27] = biological target: T27, STK16 (Homo sapiens, UniProt O75716)
T27 construct: purchased Reaction Biology Corporation
Procedure, shortened: as §1

[28] = biological target: T28, JNK2 (Homo sapiens, UniProt P45984)
T28 construct: purchased Reaction Biology Corporation
Procedure, shortened: as §1

[29] = biological target: T29, ALK1/ACVRL1 (Homo sapiens, UniProt P37023)
T29 construct: purchased Reaction Biology Corporation
Procedure, shortened: as §1

[30] = biological target: T30, CHK1 (Homo sapiens, UniProt O14757)
T30 construct: purchased Reaction Biology Corporation
Procedure, shortened: as §1

[31] = biological target: T31, TSSK3/STK22C (Homo sapiens, UniProt Q96PN8)
T31 construct: purchased Reaction Biology Corporation
T31 sequence (Q96PN8 whole entry): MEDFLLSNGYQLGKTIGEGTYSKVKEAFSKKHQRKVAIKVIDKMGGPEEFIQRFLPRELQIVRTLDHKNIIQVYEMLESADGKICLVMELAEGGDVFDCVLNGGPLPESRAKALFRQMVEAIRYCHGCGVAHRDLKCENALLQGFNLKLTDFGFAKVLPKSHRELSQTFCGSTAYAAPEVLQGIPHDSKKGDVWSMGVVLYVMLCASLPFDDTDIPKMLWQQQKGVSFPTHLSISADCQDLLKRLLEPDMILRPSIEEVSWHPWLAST
Procedure, shortened: as §1

[32] = biological target: T32, MLK3/MAP3K11 (Homo sapiens, UniProt Q16584)
T32 construct: purchased Reaction Biology Corporation
Procedure, shortened: as §1

[33] = biological target: T33, MST1/STK4 (Homo sapiens, UniProt Q13043)
T33 construct: purchased Reaction Biology Corporation
Procedure, shortened: as §1

T1 sequence (O00311 whole entry): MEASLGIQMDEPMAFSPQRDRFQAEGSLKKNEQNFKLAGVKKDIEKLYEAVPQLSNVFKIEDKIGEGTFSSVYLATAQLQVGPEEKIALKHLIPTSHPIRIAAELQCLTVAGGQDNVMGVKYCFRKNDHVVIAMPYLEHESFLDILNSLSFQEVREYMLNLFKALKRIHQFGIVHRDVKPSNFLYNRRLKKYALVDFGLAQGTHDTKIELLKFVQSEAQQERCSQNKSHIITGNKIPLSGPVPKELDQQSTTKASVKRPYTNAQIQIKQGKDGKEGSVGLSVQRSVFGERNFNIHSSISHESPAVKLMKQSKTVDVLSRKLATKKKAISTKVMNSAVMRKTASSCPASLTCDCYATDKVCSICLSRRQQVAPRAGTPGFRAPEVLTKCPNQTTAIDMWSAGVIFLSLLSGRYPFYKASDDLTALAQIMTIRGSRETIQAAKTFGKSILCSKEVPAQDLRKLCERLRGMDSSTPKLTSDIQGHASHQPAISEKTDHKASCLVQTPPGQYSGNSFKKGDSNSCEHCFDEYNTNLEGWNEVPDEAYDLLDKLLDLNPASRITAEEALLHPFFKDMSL
T1 sequence (Q9UBU7 whole entry partner): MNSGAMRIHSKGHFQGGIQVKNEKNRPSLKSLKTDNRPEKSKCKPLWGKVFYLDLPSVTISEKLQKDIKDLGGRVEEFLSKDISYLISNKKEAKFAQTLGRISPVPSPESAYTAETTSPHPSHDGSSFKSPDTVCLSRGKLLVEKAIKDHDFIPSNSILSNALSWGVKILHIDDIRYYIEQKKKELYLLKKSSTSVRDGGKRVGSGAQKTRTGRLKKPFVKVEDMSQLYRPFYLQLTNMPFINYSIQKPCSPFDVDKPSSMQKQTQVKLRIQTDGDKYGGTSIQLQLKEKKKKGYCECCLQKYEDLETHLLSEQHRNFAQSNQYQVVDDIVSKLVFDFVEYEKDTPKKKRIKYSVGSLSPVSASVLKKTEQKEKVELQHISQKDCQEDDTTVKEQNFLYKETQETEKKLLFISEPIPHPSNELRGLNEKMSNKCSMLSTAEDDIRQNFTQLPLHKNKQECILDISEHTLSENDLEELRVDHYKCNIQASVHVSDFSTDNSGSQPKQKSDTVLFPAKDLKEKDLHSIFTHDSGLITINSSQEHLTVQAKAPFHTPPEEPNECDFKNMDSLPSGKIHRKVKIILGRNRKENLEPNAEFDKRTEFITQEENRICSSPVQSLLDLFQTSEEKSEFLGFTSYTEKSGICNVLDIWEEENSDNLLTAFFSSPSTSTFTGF

SMILES: CC(=O)Nc1nc2ccc(-c3cnc(C)c(NC(=O)OC4CCCCC4)c3)cc2s1 [PK68, cyclohexyl (5-(2-acetamidobenzo[d]thiazol-6-yl)-2-methylpyridin-3-yl)carbamate]
- Activity% ([1]; 1 μM): 104.41%
- activity at 1 µM [1]: 110%
- Activity% ([2]; 1 μM): 83.70%
- activity at 1 µM [2]: 84.1%
- Activity% ([3]; 1 μM): 95.01%
- activity at 1 µM [3]: 95.5%
- Activity% ([4]; 1 μM): 94.93%
- activity at 1 µM [4]: 95.2%
- Activity% ([5]; 1 μM): 92.78%
- activity at 1 µM [5]: 92.8%
- Activity% ([6]; 1 μM): 66.88%
- activity at 1 µM [6]: 67.7%
- Activity% ([7]; 1 μM): 98.85%
- activity at 1 µM [7]: 99.5%
- Activity% ([8]; 1 μM): 89.46%
- activity at 1 µM [8]: 89.9%
- Activity% ([9]; 1 μM): 96.92%
- activity at 1 µM [9]: 97.2%
- Activity% ([10]; 1 μM): 86.01%
- activity at 1 µM [10]: 87.4%
- Activity% ([11]; 1 μM): 94.05%
- activity at 1 µM [11]: 95.7%
- Activity% ([12]; 1 μM): 82.66%
- activity at 1 µM [12]: 83.4%
- Activity% ([13]; 1 μM): 95.64%
- activity at 1 µM [13]: 95.9%
- Activity% ([14]; 1 μM): 75.13%
- activity at 1 µM [14]: 76.7%
- Activity% ([15]; 1 μM): 93.86%
- activity at 1 µM [15]: 94%
- Activity% ([16]; 1 μM): 93.52%
- activity at 1 µM [16]: 94.6%
- Activity% ([17]; 1 μM): 97.02%
- activity at 1 µM [17]: 97%
- Activity% ([18]; 1 μM): 99.15%
- activity at 1 µM [18]: 101%
- Activity% ([19]; 1 μM): 98.74%
- activity at 1 µM [19]: 100%
- Activity% ([20]; 1 μM): 95.02%
- activity at 1 µM [20]: 95.8%
- Activity% ([21]; 1 μM): 97.74%
- activity at 1 µM [21]: 98.4%
- Activity% ([22]; 1 μM): 99.58%
- activity at 1 µM [22]: 101%
- Activity% ([23]; 1 μM): 101.55%
- activity at 1 µM [23]: 103%
- Activity% ([24]; 1 μM): 97.32%
- activity at 1 µM [24]: 97.6%
- Activity% ([25]; 1 μM): 95.71%
- activity at 1 µM [25]: 96.5%
- Activity% ([26]; 1 μM): 95.17%
- activity at 1 µM [26]: 96.3%
- Activity% ([27]; 1 μM): 85.85%
- activity at 1 µM [27]: 88.2%
- Activity% ([28]; 1 μM): 101.11%
- activity at 1 µM [28]: 104%
- Activity% ([29]; 1 μM): 91.76%
- activity at 1 µM [29]: 95.2%
- Activity% ([30]; 1 μM): 87.21%
- activity at 1 µM [30]: 87.3%
- Activity% ([31]; 1 μM): 103.77%
- activity at 1 µM [31]: 104%
- Activity% ([32]; 1 μM): 82.77%
- activity at 1 µM [32]: 82.9%
- Activity% ([33]; 1 μM): 100.43%
- activity at 1 µM [33]: 100%
